Measured values reported in patent US20200339544A1 (JOINT STOCK COMPANY "BIOCAD", priority 2017, published 2020).
Where two headings read alike, the source gives them in different places. Marks after values point to notes of the source that are not given here.

Legend:
WT EGFR (Wild-Type EGFR) = target: T1, WT EGFR (Wild-Type EGFR) (Homo sapiens, UniProt P00533); assay: Inhibition of WT EGFR kinase activity (ADP-Glo); format: biochemical
T1 construct: purchased SignalChem
Procedure: (§1) To assess IC50 values of the compounds disclosed herein, a biochemical assay of inhibition of kinase activity in a non-cellular system and a functional cellular anti-proliferation assay were used.
(§2) To assess inhibition of WT EGFR (Wild-Type EGFR), DM EGFR (DoubleMutantEGFR, L828R/T790M) kinase activity, SignalChem kinase system and ADP-Glo™ Kinase Assay (V9102, Promega) detection kit were used.
(§3) The measurements were carried out in a 25 μL reaction volume using a 96-well plate. […] The solution of 0.5 mg/mL peptide substrate and 50 μM ATP in the same buffer were added; the solution was incubated for 180 minutes at 37° C. To detect the amount of ATP taken up during the kinase reaction, the ADP Glo Detection Kit (V9102, Promega) was used. The luminescence was measured with the Infinite M200Pro plate spectrophotometer (Tecan, Switzerland). IC50 values were calculated using Magellan 7.2 software (Tecan, Switzerland) approximating experimental points by four-parameter logistic model with the optimization by Levenberg-Marquardt (Table 14).

[1] = target: T2, DM EGFR (DoubleMutantEGFR, L828R/T790M) (Homo sapiens, UniProt P00533, L858R/T790M); assay: Inhibition of DM EGFR kinase activity (ADP-Glo); format: biochemical; settings: for IC50: inhibition of kinase activity, EGFR DM (L828R/T790M); for SI, IC50(WT)/IC50(DM): selectivity index, kinase EGFR WT vs EGFR DM
T2 construct: purchased SignalChem
Procedure: as §1, §2, §3

[2] = test system: A549 (lung adenocarcinoma, WT); assay: Antiproliferative activity on A549 cells (Alamar Blue); format: cell-based; settings: Homo sapiens, antiproliferative test
Procedure: (§4) Antiproliferative activity of EGFR inhibitors (Tables 15 and 16) was measured in cell-based bioassay on continuous epithelial cell cultures: A549 (lung adenocarcinoma, ATCC® CRM-CCL-185™—WT), HCC827 (lung adenocarcinoma, ATCC® CRL-2868™—SM (SingleMutantEGFR, exon19delE746-A750)) and H1975 (lung adenocarcinoma, ATCC® CRL-5908™—DM (DoubleMutantEGFR, L828R/T790M)) using cell viability reagent Alamar Blue (ThermoFisher, # DAL1100). Cells were cultured in 10% FBS-supplemented (Gibco, #16140071) RPMI-1640 (PanEco, S330p) for at least 1 passage after thawing, washed with PBS and passaged in 96-well culture plates (3599, Corning) with RPMI-1640 growth medium supplemented with 2% FBS in an amount of 5*10^3 cells/well for A549, 10*10^3 cells/well for HCC827 and 15*10^3 cells/well for H1975 in 100 μL, and incubated at 37° C. in an incubator (Thermo Forma, USA) under 5% of CO2 for 16-18 h for cell attachment.
(§5) The test compounds were dissolved in DMSO in the selected range of concentrations and transferred to RPMI-1640 medium (PanEco, S330p) supplemented with 2% FBS. After adding 50 μl of the prepared dilutions to the cells, the incubation mixture contained the final concentrations of the test substances and no more than 1% DMSO. The plates were Incubated at 37° C. for 72 h. After incubation, 15 μl of Alamar Blue vital dye (ThermoFisher, # DAL1100) was added to each well. The plates were shaken on an orbital shaker (Biosan, Latvia) and further incubated for 3-5 h in a CO2 incubator (Thermo Forma, USA). Number of living cells was estimated using a plate spectrophotometer Infinite M200Pro, (Tecan, Switzerland) measuring fluorescent signal at the excitation wavelength (λEx) of 540 nm and emission wavelength (λEm) of 590 nm.
IC50 was calculated using Magellan 7.2 software (Tecan, Switzerland) approximating experimental points by four-parameter logistic model with the optimization by Levenberg-Marquardt.
(§6) The ratio between IC50 for cell lines containing wild-type EGFR (A549) and IC50 for cell lines containing target mutation L828R/T790M (H1975) is the selectivity index (SI): […]

[3] = Chemical stability in human blood plasma; format: in vitro ADME; settings: pooled human blood plasma; 10 μm; 4 hours at 37° C.; substance amount remaining
Procedure: 2) Determination of chemical stability in human blood plasma.
Determination of stability in human blood plasma was performed using pooled human blood plasma taken from ten healthy donors. The initial candidate solution (10 mM in DMSO) was diluted with pooled blood plasma to a concentration of 10 μm (test solution). The test solution was incubated in a dry block thermostat for 4 hours at 37° C. HPLC with Agilent 1200 liquid chromatography system (Agilent, USA) was employed to determine peak areas of the compounds in test samples, said peak areas corresponding to the initial test time (prior to incubation) and the final test time (after incubation in a dry block thermostat for 4 hours at 37° C.), proteins were preliminarily precipitated with acetonitrile. We used gradient elution (1 mL/min flow rate). Substance amount in % in a sample after thermostatting was determined.
The stability of the compounds was estimated.

[4] = test system: H1975 (lung adenocarcinoma, DM, L828R/T790M); assay: Antiproliferative activity on H1975 cells (Alamar Blue); format: cell-based; settings: for IC50: Homo sapiens, NCI-H1975, H1975 cells; for SI IC50(A549)/IC50(DM): selectivity index, A549 vs H1975 cells
Procedure: as §4, §5
IC50 was calculated using Magellan 7.2 software (Tecan, Switzerland) approximating experimental points by four-parameter logistic model with the optimization by Levenberg-Marquardt. […]
as §6

[5] = General cytotoxicity on HepG2 cells; format: cell-based; settings: human; general cytotoxicity, HepG2 cells, 72 hours, average of several tests
Procedure: (§7) The CC50 values were determined in the test for General cytotoxicity on HepG2 cells (rhepatocellular carcinoma, ATCC® HB-8065™) (Table 16). The cells were subcultured in DMEM medium (PanEco, S420p) supplemented with 10% FBS (Gibco, #16140071) for at least 1 passage after thawing, washed with PBS and passaged in 96-well culture plates (3599, Corning) at a concentration of 2*10^4 cells/100 μL per well, and incubated for 16-18 h. The test substances were titrated in DMSO and transferred to DMEM (PanEco, S420p) medium supplemented with 2% FBS, added to the cells and incubated at 37° C. for 72 hours; viability of the cells was then assessed using Alamar Blue dye (ThermoFisher, # DAL1100). CC50 was determined similarly to IC50.
(§8) The ratio between CC50 for HepG2 cell line and IC50 for H1975 cell line is the therapeutic index (TI): […]

HepG2 cells = assay: General cytotoxicity on HepG2 cells; format: cell-based; settings: therapeutic index, CC50 HepG2 / IC50 H1975
Procedure: as §7, §8

[6] = antiproliferative test, Table 15, read-out: IC50 H1975 (DM)
[7] = average values obtained in several tests, Table 16, read-out: H1975 (DM) IC50

IC50 (WT EGFR (Wild-Type EGFR)) | IC50 [1] | SI, IC50(WT)/IC50(DM) [1] | IC50 [2] | Stability in blood plasma, % [3] | IC50 [4, 6] | IC50 [4, 7] | SMILES | SI IC50(A549)/IC50(DM) [4] | CC50 at 72 h [5] | TI, CC50/IC50 (HepG2 cells)
107 nM | 4.55 nM | 23.60 | 31600 nM | 95.4% | > 200 nM | – | C=CC(=O)Nc1cc(Nc2nccc(C(=O)c3ccc(N4CCCC4=O)cc3)n2)c(OC)cc1N(C)CCN(C)C [EGFR_3365_91] | <158 | – | –
133 nM | 7.57 nM | 17.56 | 22900 nM | 99.1% | 35.1 nM | – | C=CC(=O)Nc1cc(Nc2nccc(C(=O)c3ccc(OCCOC)cc3)n2)c(OC)cc1N(C)CCN(C)C [EGFR_3365_92, N-(2-((2-(dimethylamino)ethyl)(methyl)amino)-4-methoxy-5-((4-(4-(2-methoxyethoxy)benzoyl)pyrimidin-2-yl)amino)phenyl) acrylamide] | 652 | – | –
84.2 nM | 2.3 nM | 36.55 | 13800 nM | 99.3% | 22.9 nM | 22.9 nM | C=CC(=O)Nc1cc(Nc2nccc(C(=O)c3ccc(N4CCC(C#N)CC4)cc3)n2)c(OC)cc1N(C)CCN(C)C [EGFR_3365_97, N-(5-((4-(4-(4-cyanopiperidin-1-yl)benzoyl)pyrimidin-2-yl)amino)-2-((2-(dimethylamino)ethyl)(methyl)amino)-4-methoxyphenyl)acrylamide] | 601 | 21600 nM | 943
97.7 nM | 2.32 nM | 42.20 | 9510 nM | 95.7% | 21.7 nM | 21.7 nM | C=CC(=O)Nc1cc(Nc2nccc(C(=O)c3ccc(N4CCC[C@H](OC)C4)cc3)n2)c(OC)cc1N(C)CCN(C)C [EGFR_3365_110, (S)-N-(2-((2-(dimethylamino)ethyl)(methyl)amino)-4-methoxy-5-((4-(4-(3-methoxypiperidin-1-yl)benzoyl)pyrimidin-2-yl)amino)phenyl)acrylamide] | 439 | 18500 nM | 855
186 nM | 2.33 nM | 79.88 | 11200 nM | 100.0% | 36.6 nM | 36.6 nM | C=CC(=O)Nc1cc(Nc2nccc(C(=O)c3ccc(N4CCC[C@@H](OC)C4)cc3)n2)c(OC)cc1N(C)CCN(C)C [EGFR_3365_111, (R)-N-(2-((2-(dimethylamino)ethyl)(methyl)amino)-4-methoxy-5-((4-(4-(3-methoxypiperidin-1-yl)benzoyl)pyrimidin-2-yl)amino)phenyl)acrylamide] | 307 | 27100 nM | 742
19.7 nM | 2.67 nM | 7.35 | 5310 nM | 92.2% | 2.21 nM | 2.21 nM | C=CC(=O)Nc1cc(Nc2nccc(C(=O)c3ccc(N4CCCCC4)cc3OC)n2)c(OC)cc1N(C)CCN(C)C [EGFR_3365_122, N-(2-((2-(dimethylamino)ethyl)(methyl)amino)-4-methoxy-5-((4-(2-methoxy-4-(piperidin-1-yl)benzoyl)pyrimidin-2-yl)amino)phenyl)acrylamide] | 2398 | 12600 nM | 5710

Further lines, the compound ahead of its results:

SMILES | IC50 (WT EGFR (Wild-Type EGFR)) | IC50 [1] | SI, IC50(WT)/IC50(DM) [1] | IC50 [2] | Stability in blood plasma, % [3] | IC50 [4, 6] | IC50 [4, 7] | SI IC50(A549)/IC50(DM) [4] | CC50 at 72 h [5] | TI, CC50/IC50 (HepG2 cells)
C=CC(=O)Nc1cc(Nc2nccc(C(=O)c3ccc(N4CCC(N)CC4)cc3OC)n2)c(OC)cc1N(C)CCN(C)C [EGFR_3365-126] | 19.8 nM | 1.86 nM | 10.62 | – | – | – | – | – | – | –
C=CC(=O)Nc1cc(Nc2nccc(C(=O)c3ccc(N4CCC(OC)CC4)cc3)n2)c(OC)cc1N(C)CCN(C)C [EGFR_3365_98, N-(2-((2-(dimethylamino)ethyl)(methyl)amino)-4-methoxy-5-((4-(4-(4-methoxypiperidin-1-yl)benzoyl)pyrimidin-2-yl)amino)phenyl)acrylamide] | 83.2 nM | 1.86 nM | 44.62 | 14500 nM | 96.1% | 13.7 nM | 13.7 nM | 1065 | 24200 nM | 1770
C=CC(=O)Nc1cc(Nc2nccc(C(=O)c3ccc(OC4CC4)cc3)n2)c(OC)cc1N(C)CCN(C)C [EGFR_3365_116, N-(5-((4-(4-cyclopropoxybenzoyl)pyrimidin-2-yl)amino)-2-((2-(dimethylamino)ethyl)(methyl)amino)-4-methoxyphenyl)acrylamide] | 35 nM | 1.75 nM | 19.99 | 11800 nM | 86.0% | 29.5 nM | 29.5 nM | 400 | 22100 nM | 749
C=CC(=O)Nc1cc(Nc2nccc(C(=O)c3ccc(N4CCC(N(C)C)CC4)cc3OC)n2)c(OC)cc1N(C)CCN(C)C [EGFR_3365_127, N-(2-((2-(dimethylamino)ethyl)(methyl)amino)-5-((4-(4-(4-(dimethylamino)piperidin-1-yl)-2-methoxybenzoyl)pyrimidin-2-yl)amino)-4-methoxyphenyl)acrylamide] | 24.5 nM | 2.96 nM | 8.29 | > 10000 nM | – | 8.45 nM | – | >166** | – | –
